In patent US20200147158A1, “SANGHUANGPORUS SANGHUANG STRAINS AND THEIR PRODUCTS, EXTRACTS AND APPLICATIONS” (FOOD INDUSTRY RESEARCH AND DEVELOPMENT INSTITUTE, priority 2018, published 2020):

Tests used:
Assay type in all cases: cell-based
ER-β = biological target: T1, ER-β (Homo sapiens, UniProt Q92731); experiment: Evaluation of SERMs activity: ERβ/pERE-TA-SEAP reporter gene assay in transfected CV-1 cells; details: for ER Subtype Activity ER-β: ratio to untreated cells (Medium only); for ER-β/ER-α: ratio of relative ER-β to ER-α activity
T1 construct: expressed in transfected cells; host or cells: CV-1 (Cercopithecus aethiops kidney cells)
Protocol: (§1) CV-1 cells (Cercopithecus aethiops kidney cells) were grown at a confluence of 70-80% and were harvested in a cell suspension at a concentration of 5×10^4 cell/ml. The cell suspensions were added to each well (100 μl/well) of 96-well plate and the 96-well plate was incubated at 37° C., 5% CO2 incubator overnight.
(§2) 500 μl jetPRIME® buffer. 5 μg pERE-TA-SEAP and 5 μg ERα DNA plasmid (or ERβ DNA plasmid) were mixed in 1.5 ml eppendorf, then 20 μl jetPRIME® Transfection Reagent and 1.5 ml medium were added. The DNA mixtures were added to each well of 96-well plate (20 μl) and the 96-well plate was incubated at 37° C., 5% CO2 incubator for 4 hours.
(§3) The supernatant solutions were removed from each well of 96-well plate, then 90 μl charcoal-treated. FBS medium without phenol red were added to each well of 96-well plate. The samples to be tested were added to the wells of 96-well plate, which was incubated in 37° C., 5% CO2 incubator for 48 to 72 hours. The cells were harvested for the subsequent reporter gene assay and cell toxicity assay.
25 μl cell culture supernatants were collected from the 96-well plate and, then added to a new luminescence microplate, which was incubated at 65° C. water bath for 30 minutes to remove the activity endogenous alkaline phosphatase, and was placed on ice for 5 minutes and was centrifuged (1,000 rpm) for one minute. 25 μl PhosphaLight™ assay buffers were added at room temperature for 5 minutes and 25 μl CSPD (Disodium 3-(4-methoxyspiro {1,2-dioxetane-3,2′-(5′-chloro)tricyclo [3.3 1.13,7]decan}-4-yl phenyl phosphate)-containing Phospha-Light™ reaction buffers were added at room temperature for 20 minutes. The luminescence microplate was placed in Victor™ Light 1420 Luminescence Counter and the SEAP enzyme activities were measured.

Estrogen Receptor (ER) = biological target: T2, Estrogen Receptor (ER) (Homo sapiens, UniProt P03372); experiment: ER total activity assay (pERE-TA-SEAP reporter in MCF-7 cells); details: for ER activity (FIG. 1, in words): 2 μg/ml, 5 μg/ml and 10 μg/ml; for ER activity compared with 17-β Estradiol (positive control), FIG. 1, in words: MCF-7 cells
T2 construct: endogenous in cells; host or cells: MCF-7
T2 sequence (P03372 1-595): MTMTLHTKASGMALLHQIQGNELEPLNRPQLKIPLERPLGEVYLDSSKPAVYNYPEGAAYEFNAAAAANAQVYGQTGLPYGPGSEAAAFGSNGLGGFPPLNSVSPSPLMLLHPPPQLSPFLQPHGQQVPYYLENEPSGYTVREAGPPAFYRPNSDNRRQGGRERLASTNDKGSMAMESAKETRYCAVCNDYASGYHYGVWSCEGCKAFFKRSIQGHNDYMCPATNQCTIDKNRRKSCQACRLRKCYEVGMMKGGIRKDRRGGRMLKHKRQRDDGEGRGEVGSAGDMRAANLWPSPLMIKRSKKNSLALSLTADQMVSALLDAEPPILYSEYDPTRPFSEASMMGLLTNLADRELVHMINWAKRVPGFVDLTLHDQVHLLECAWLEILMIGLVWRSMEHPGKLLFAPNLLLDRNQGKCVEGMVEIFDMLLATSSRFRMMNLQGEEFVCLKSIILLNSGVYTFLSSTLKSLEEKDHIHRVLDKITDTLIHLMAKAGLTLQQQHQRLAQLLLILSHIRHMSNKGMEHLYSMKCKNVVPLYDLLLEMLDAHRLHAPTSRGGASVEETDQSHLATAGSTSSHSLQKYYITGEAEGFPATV
Protocol: ER is a ligand-activated enhancer protein that is a member of the steroid/nuclear receptor superfamily. […] Secreted alkaline phosphatase (SEAP) is a reporter widely used to study promoter activity or gene expression.
The 1 ml 0.05% trypsin-EDTA solution was added to 80% confluence (on Day 5, if cells were in log phase) of MCF-7 cells in a T75 flask at 37° C. for 5 minutes. After the cells were detached, 5 ml charcoal-treated FBS-containing medium were added to suspend the cells. The charcoal-treated FBS-containing PBS medium were added 2 ml cell suspensions to the final volume of 10 ml of a mixture. The mixture was dispensed into each well (100 μl/well, 2×10^4 cells/well) of a 96-well plate by 8-channel pipette, and the 96-well plate was placed at 37° C. and 5% CO2 overnight to obtain about 70% confluence.
To transfect cells to express the ERE, a transfection mixture was prepared. TransIT®-LT1 Transfection Reagent is a broad spectrum reagent that provides high efficiency plasmid DNA delivery in many mammalian cell types including primary cells. Specifically, 1 ml Opti-MEM®, 14 μl TransIT®-LT1 Transfection Reagent and 5 μg pERE-TA-SEAP were added into a 1.5 ml Eppendorf and let the transfection mixture stand for 15-30 minutes.
Transfection mixture containing TransIT-DNA was dispensed into each well (10 μl/well) of a 96-well plate, and the 96-well plate was placed at 37° C. and 5% CO2 for 24 hours. The supernatants were removed from the 96-well plate using 8-channel pipette.
(§4) 25 μl cell culture supernatants were collected from the 96-well plate and, then added to a new luminescence microplate, which was incubated at 65° C. water bath for 30 minutes to remove the activity endogenous alkaline phosphatase, and was placed on ice for 5 minutes and was centrifuged (1,000 rpm) for one minute.

ER-α = biological target: T3, ER-α (Homo sapiens, UniProt P03372); experiment: Evaluation of SERMs activity: ERα/pERE-TA-SEAP reporter gene assay in transfected CV-1 cells; details: 25 μg/mL, ratio to untreated cells (Medium only)
T3 construct: expressed in transfected cells; host or cells: CV-1 (Cercopithecus aethiops kidney cells)
T3 sequence (P03372 1-595): T2 sequence (P03372 1-595)
Protocol: as §1, §2, §3, §4

T1 sequence (Q92731 whole entry, species assumed): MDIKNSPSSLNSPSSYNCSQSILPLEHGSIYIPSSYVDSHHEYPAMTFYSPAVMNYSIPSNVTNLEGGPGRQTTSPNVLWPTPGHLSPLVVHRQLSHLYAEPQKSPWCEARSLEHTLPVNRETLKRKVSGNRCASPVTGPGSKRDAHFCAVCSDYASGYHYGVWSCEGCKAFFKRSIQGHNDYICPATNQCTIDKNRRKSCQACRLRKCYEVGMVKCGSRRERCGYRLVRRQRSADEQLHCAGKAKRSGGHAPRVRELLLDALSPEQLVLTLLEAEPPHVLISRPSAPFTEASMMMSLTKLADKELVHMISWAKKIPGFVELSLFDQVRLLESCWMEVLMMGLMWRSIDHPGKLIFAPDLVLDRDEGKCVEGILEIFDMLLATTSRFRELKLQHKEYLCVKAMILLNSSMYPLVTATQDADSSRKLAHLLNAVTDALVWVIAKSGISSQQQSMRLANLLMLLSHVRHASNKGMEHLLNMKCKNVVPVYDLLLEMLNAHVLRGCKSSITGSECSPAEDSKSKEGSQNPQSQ

| SMILES | ER Subtype Activity ER-β (ER-β; 200 nM) | ER activity (FIG. 1, in words) (Estrogen Receptor (ER)) | ER activity compared with 17-β Estradiol (positive control), FIG. 1, in words (Estrogen Receptor (ER)) | ER Subtype Activity ER-α (ER-α) | ER-β versus ER-α activity (in words) (ER-β) | ER-β/ER-α (ER-β; 25 μg/mL) | ER Subtype Activity ER-β (ER-β; 25 μg/mL) |
| --- | --- | --- | --- | --- | --- | --- | --- |
| C[C@]12CC[C@@H]3c4ccc(O)cc4CC[C@H]3[C@@H]1CC[C@@H]2O [17-β Estradiol (E2), 17-β Estradiol, reference compound] | 3.70 ± 0.45 | – | – | – | – | – | – |
| C=C1CCCC(C)(C)C1CC/C(C)=C/C(=O)O (stereo not shown) [Compound 1, (E)-5-(2,2-dimethyl-6-methylenecyclohexyl)-3-methylpent-2-enoic acid] | – | significant ER activity | superior ER activity over 17-β Estradiol | 1.21 ± 0.53 | superior ER-β activity over ER-α activity | 3.1 | 3.80 ± 0.11 |
| C=C1CCCC(C)(C)[C@@H]1/C=C/C(C)=C/C(=O)O [Compound 2, (+)-(2E,-4E)-5-((S)-2,2-dimethyl-6-methylenecyclohexyl)-3-methylpenta-2,4-dienoic acid] | – | significant ER activity | superior ER activity over 17-β Estradiol | 1.16 ± 0.16 | superior ER-β activity over ER-α activity | 2.2 | 2.53 ± 0.77 |
